Source: patent US11219628B2, “Replacement of cytotoxic preconditioning before cellular immunotherapy” (priority 2017, dated 2022)
Entries after “also recorded” stand apart in the source; their conditions may differ. Read-outs that look alike come from different tables or passages of the source.

Columns and labels:
RBC = conditions: doses of about 24 mg/50 kg; cited from earlier work
[1] = tested on: peripheral blood lymphocytes; experiment: Repeat of Hinrichs dexamethasone dosing: peripheral blood lymphocytes by flow cytometry; type: in vivo; set-up: CD3+CD4+CD25+FoxP3+ Tregs reduction / CD3+ T lymphocytes reduction / CD3+CD4+ T lymphocytes reduction / CD3+CD8_T lymphocytes reduction: concentration or dose not given beside the values
Text: Prior studies into the use of steroids to precondition a patient prior to ACT had shown this approach to be ineffective. […] In contrast, Hinrichs discloses that pretreatment with radiation did enhance ACT tumor killing. […] However, while Hinrichs reported 99% lymphodepletion, no enhancement of ACT tumor killing was observed. In contrast, Hinrichs observed that radiation does enhance ACT tumor killing. […] In contrast, CD3+ T lymphocytes were reduced from […] live events, only a non-significant […] reduction. CD3+CD4+ T lymphocytes were reduced from 1779 to 902 live events, only a non-significant 50% reduction. CD3+CD8_T lymphocytes were reduced from 1318 to 1277 live events, only a non-significant 3% reduction. CD3+CD4+CD25+FoxP3+ Tregs were reduced from 198 to 70 live events, only a non-significant 65% reduction. And natural killer (NK) cells were reduced from 1153 to 958 live events, only a non-significant 17% reduction.

neutrophil function = conditions: cited from earlier work
[2] = tested on: peripheral blood T and B cells, germinal centers and marginal zones, plasma IL-2 and IL-15; experiment: Summary statements: acute dexamethasone doses needed for in vivo NTLA effects
Text: The effects of glucocorticoids are complex and depend on each specific glucocorticoid's affinity for the GR and mineralocorticoid receptor (MR). Additionally, there are now 9 known isoforms of the cytosolic GR and additional membrane expressed GR receptors that have been identified but which are not fully characterized. […] In general, at low doses typically used for chronic therapy, glucocorticoids have been reported to redistribute lymphocytes from the peripheral blood into the bone marrow, at medium doses glucocorticoids have been reported to cause leukocytosis thought to be a redistribution of leukocytes from the bone marrow, spleen and thymus into the peripheral blood, and at high doses glucocorticoids have a lymphotoxic action on lymphocytes by triggering apoptosis and necroptosis.

[3] = tested on: germinal centers in spleen; experiment: Mouse spleen germinal centers by FITC-PNA immunofluorescence
[4] = tested on: blood lymphocytes, neutrophils, RBCs, platelets; experiment: Rat complete blood counts 48 hours after acute dexamethasone; conditions: IV or PO 20, 40 or 80 mg/kg; for neutrophil number: all doses
MOPC315 cells [5] = experiment: Immunocompetent mouse model of multiple myeloma: preconditioning before alloHSCT or NK cells; conditions: preconditioning before alloHSCT
Text: (§1) The mouse multiple myeloma MOPC315 cell line available from ATCC is tail vein inoculated to immunocompetent Balbc mice at 2×10^6 cells.
(§2) Balb/cJ (H-2d) and B10.D2 (H-2d) mice were purchased from Jackson Laboratory (Bar Harbor, Me., USA). Mice were used when they were between 10- to 14-wk-old. […] Red blood cells are lysed using sterile filtered RBC lysis buffer (eBioscience, San Diego, USA) and cells are washed, resuspended in phosphate buffered saline (PBS) containing 3% FBS, and filtered through a 70 mM nylon membrane. For CD8 T-cell depletion, the “Mouse CD8a positive selection kit” (Stem Cell, Grenoble, France) are used according to the manufacturer's EASYSEP depletion protocol. Finally, cells are suspended in 200 ml PBS for i.v. injection. Balbc mice are transplanted by i.v. tail vein injection of 1×10^7 bone marrow cells and 7×10^7 splenocytes from donor B10.D2 mice between 10 and 30 days after MOPC315 inoculation.
(§3) For allogeneic NK cell administration, fully functional NK cells are isolated from donor B10.D2 mice using commercially available kits such as the one from Miltenyi. Alternatively, mouse NK cells can be purchased from ATCC (KIL cells). The NK Cell Isolation Kit was developed for the isolation of untouched NK cells from single-cell suspensions of murine spleen. Non-NK cells, i.e. T cells, dendritic cells, B cells, granulocytes, macrophages, and erythroid cells are magnetically labeled by using a cocktail of biotin-conjugated antibodies and Anti-Biotin MicroBeads. Isolation of highly pure unlabeled NK cells is achieved by depletion of non-target cells. The kit has been optimized to give outstanding purities in C57BL/6J mice. 1×10^7 isolated NK cells are transplanted by IV tail vein injection between 10 and 30 days after MOPC315 inoculation.

[6] = tested on: multiple myeloma and other cancer cell lines; experiment: Direct tumor killing by acute dexamethasone; type: in vivo; conditions: about 1.6 mg/kg HED in a 48 hour period
Text: The desired in vivo effects of exemplary NTLAs would include reductions in germinal center and marginal zones in secondary lymphatics, direct tumor killing of some cancers particularly; multiple myeloma, renal cell carcinoma, leukemia and lymphoma, non-small cell lung cancer (NSCLC), prostate and breast cancer; depletion of all peripheral blood lymphocyte types, lack of lymphocyte redistribution to the BM or other organs, and elevation of plasma cytokines including IL-2, and/or IL-7, and/or IL-12, and/or IL-15 to levels preferably of 20 pg/ml or greater, among others.

[7] = cited from earlier work
IL-2, IL-15, IL-6 = type: in vivo, human; conditions: oral 3 mg/kg dexamethasone base; 48 hours
Experimental: (FIG. 12, FIG. 13, FIG. 14 and FIG. 15 show data from the same four human patients.)
Blood was drawn before drug treatment and 48 hours post-treatment for CBC analysis and flow cytometry to determine lymphocyte and other blood cell populations. Serum was analyzed for cytokine levels. For one patient, pre-treatment CBCs were not drawn and thus normalized flow cytometry data is shown for only 3 patients.

MOPC315 cells [8] = conditions: mouse, in vivo
Text: as §1, §2, §3

[9] = tested on: blood lymphocyte populations, neutrophils, RBCs, platelets; experiment: Mouse CBC and flow cytometry 48 hours after oral acute dexamethasone; conditions: oral HED 3, 6, 9 or 12 mg/kg
Text: Treg lymphocytes were identified by being CD3+CD4+CD25+FoxP3+.
NK cells were identified by being CD3−CD49b+. B lymphocytes were identified by being CD3−B220+.

[10] = tested on: blood lymphocyte populations, HSCs
Text: Each patients pre-treatment values are connected to post-treatment values by a connecting line. CD4+ cells are also CD3+. CD8+ cells are also CD3+.
Each patient's pre-treatment values are connected to post-treatment values by a connecting line. Tregs are identified by being CD3+CD4+CD25+FoxP3+. B lymphocytes are identified by being CD3-CD19+.
Each patient's pre-treatment values are connected to post-treatment values by a connecting line. NK cells are identified by being CD3-CD16/56+. HSCs are identified by being CD34+CD38-.
Blood was drawn before drug treatment and 48 hours post-treatment for CBC analysis and flow cytometry to determine lymphocyte and other blood cell populations. […] For one patient, pre-treatment CBCs were not drawn and thus normalized flow cytometry data is shown for only 3 patients.

[11] = cited from earlier work; remark: listed apart in the source
[12] = tested on: spleen weights, germinal centers; conditions: po daily for 13 weeks, mice; cited from earlier work
germinal centers = conditions: 1 to 4 weeks of daily dosing; up to about 10 mgs/kg/day; cited from earlier work
Tregs = conditions: in vivo; cited from earlier work
[13] = Hinrichs dosing, non-significant

C[C@H]1C[C@H]2[C@@H]3CCC4=CC(=O)C=C[C@]4(C)[C@@]3(F)[C@@H](O)C[C@]2(C)[C@@]1(O)C(=O)CO [Betamethasone]
effect on RBC (RBC): reduces RBC

C[C@@H]1C[C@H]2[C@@H]3CCC4=CC(=O)C=C[C@]4(C)[C@@]3(F)[C@@H](O)C[C@]2(C)[C@@]1(O)C(=O)CO [Dexamethasone, dexamethasone]
CD3+ T lymphocytes reduction [1, 13]: 33%
CD3+CD4+ T lymphocytes reduction [1, 13]: 50%
CD3+CD4+CD25+FoxP3+ Tregs reduction [1, 13]: 65%
CD3+CD8_T lymphocytes reduction [1, 13]: 3%
natural killer (NK) cells reduction [1, 13]: 17%
CD3+CD4+CD25+FoxP3+ Tregs, live events ([1]; Hinrichs dosing, reduced from 198): 70 live events
natural killer (NK) cells, live events ([1]; Hinrichs dosing, reduced from 1153): 958 live events
CD3+CD8_T lymphocytes, live events ([1]; Hinrichs dosing, reduced from 1318): 1277 live events
CD3+CD4+ T lymphocytes, live events ([1]; Hinrichs dosing, reduced from 1779): 902 live events
CD3+ T lymphocytes, live events ([1]; intraperitoneal 10 mg/kg (HED 0.81 mg/kg) on day −6, −4, −2, reduced from 3370): 2441 live events
B lymphocytes reduction vs vehicle control ([1]; intraperitoneal 10 mg/kg (HED 0.81 mg/kg) on day −6, −4, −2, significant): 65%
B lymphocytes (CD3-CD19+ cells) in the peripheral blood, live events by flow cytometry ([1]; intraperitoneal 10 mg/kg (HED 0.81 mg/kg) on day −6, −4, −2, vehicle control 10680): 3733 live events
neutrophil function (neutrophil function): do not inhibit neutrophil function
acute oral dose necessary to reduce peripheral blood T and B cells ([2]; 48 hours after administration): ≥ 3 mg/kg
return to baseline levels of peripheral blood T and B cells ([2]; acute oral doses of 3 mg/kg or greater): 5 to 14 days after dosing
acute dose required for lymphodepletion ([2]; in vivo): > 3 mg/kg HED
acute dose that reduces germinal centers and marginal zones in secondary lymphatics ([2]; in vivo): ≥ 6 mg/kg HED
dose of dexamethasone base at which plasma IL-2 and IL-15 cytokine elevations are observed ([2]; in vivo): ≥ 3 mg/kg HED
HED at which germinal centers are reduced in mice [3]: ≥ 3 mg/kg HED
Hct [4]: not affected
HgB [4]: not affected
RBCs [4]: not affected
platelets [4]: not affected
neutrophil number [4]: not reduced; also recorded: increased by all doses
neutrophil number ([4]; listed as Dex): does not reduce
body weights after preconditioning (in words) (MOPC315 cells [5]): not reduced
direct tumor killing [6]: about 50%
lowest lethal dose ([7]; healthy mice): 114 mg/kg HED
lowest lethal dose ([7]; tumor bearing mice): 43 mg/kg HED
patients with increased serum IL-2 and/or IL-15 levels (IL-2, IL-15, IL-6): 100%
toxicity compared to standard CyFlu preconditioning (MOPC315 cells [8]): much less toxicity
toxicity compared to standard repeat CyFlu preconditioning (MOPC315 cells [8]): less toxicity
RBCs [9]: spared
neutrophils [9]: spared
platelets [9]: spared
B lymphocytes reduction compared to placebo ([9]; dose for the value not stated): 83%
CD3+ T lymphocytes reduction compared to placebo ([9]; dose for the value not stated): 65%
CD4+ T lymphocytes reduction compared to placebo ([9]; dose for the value not stated): 75%
CD8+ T lymphocytes reduction compared to placebo ([9]; dose for the value not stated): 56%
Tregs reduction compared to placebo ([9]; dose for the value not stated): 78%
absolute lymphocyte count reduction compared to placebo ([9]; dose for the value not stated): 84%
natural killer cells (NK) reduction compared to placebo ([9]; dose for the value not stated): 87%
RBCs ([9]; listed as Dex): spares
neutrophils ([9]; listed as Dex): sparing
platelets ([9]; listed as Dex): spares
patients showing lymphocytosis ([10]; 3 mg/kg HED): 50%
hematopoietic stem cells (CD34+CD38-) ([10]; human, in vivo, po, 3 mg/kg): spared

C[C@]12C=CC(=O)C=C1CC[C@@H]1[C@@H]2C(=O)C[C@@]2(C)[C@H]1CC[C@]2(O)C(=O)CO [Prednisone]
biologic half-life [11]: about 20 hours
dose above which germinal centers are significantly impacted [12]: over 2.5 mg/kg
dose above which spleen weights are significantly impacted [12]: over 2.5 mg/kg

C=CC[C@@H]1/C=C(\C)C[C@H](C)C[C@H](OC)[C@H]2O[C@@](O)(C(=O)C(=O)N3CCCC[C@H]3C(=O)O[C@H](/C(C)=C/[C@@H]3CC[C@@H](O)[C@H](OC)C3)[C@H](C)[C@@H](O)CC1=O)[C@H](C)C[C@@H]2OC [Tacrolimus]
neutrophil function (neutrophil function): inhibits neutrophil function
daily dosing required to reduce germinal centers (germinal centers): ≥ 0.48 mg/kg/day

methylprednisone
effect on Tregs (Tregs): increases Tregs
